Results as given in paper PMC3351437, “Skin-Targeted Inhibition of PPAR β/δ by Selective Antagonists to Treat PPAR β/δ – Mediated Psoriasis-Like Skin Disease In Vivo” (PLoS ONE, 2012).
Read-outs that look alike come from different tables or passages of the source.

Key:
[1] = Blood concentration after topical application (UPLC/mass spectrometry); format: in vivo, C57Bl/6j wild type mice; conditions: for total amount of detectable compound in blood as fraction of total drug applied: 1 h after topical application, blood volume assumed 7% of body mass
Description: (§1) 50 µL of cardiac blood were diluted 1∶2 (v∶v) with milipore water and snap frozen immediately. Previously treated skin segments were shaved, tape-stripped three times to remove residual hair and non-absorbed ointment on the surface, and then snap frozen in liquid nitrogen. Frozen skin was ground and ten times the volume of methanol-water (1∶1 v/v) was added per weight unit of skin. A minimum of 20 mg of skin was used per each sample. Samples were homogenized with a Covaris S2 acoustic homogeniser. For both cardiac blood and skin homogenate, proteins were precipitated by adding 3 volumes of acetonitrile containing a suitable internal standard. All samples were then centrifuged for 10 minutes at 2800 rpm before transfer of 200 µL of supernatant into a 96 well plate and 100 µL of milliQ water added. Calibration curves were constructed in either untreated homogenised skin or blood to cover at least 3 orders of magnitude (1–2000 ng/mL) and extracted as for aforementioned study samples. All cardiac blood, skin samples and standards were then investigated by mass spectrometry as described below. For calculation of total blood volume, mice were weighed and an average blood volume of 7% (mL/g) of body mass was assumed.
(§2) An Acquity ultra high performance liquid chromatography (UPLC) system; consisting of an autosampler, the Acquity UPLC Sample Manager with Sample Organiser, a pump, the Acquity UPLC Binary Solvent Manager, an in-built column oven, a UV detector, the Acquity UPLC Photo Diode Array) and a Quattro Premier XE triple quadrupole mass spectrometer (Waters, UK). […] The analytical column was an Acquity UPLC BEH C18, 2.1 mm i.d. ×50 mm length, 1.7 µm particle size (Waters, UK). No guard column was used, but a vanguard […].
(§3) Mobile phase A was Milli-Q reverse phase de-ionised water with formic acid (0.1%, v∶v), mobile phase B was acetonitrile with formic acid (0.1%, v∶v). Mobile phase was delivered at a flow rate of 0.6 mL/min. […] Finally mobile phase B was returned to 5% over 0.1 min and maintained at this composition for 0.4 min. Total run time 3 min.
(§4) The entire flow was introduced into the Mass spectrometer. The autosampler was set at 4°C and an injection voloume of 5 µL was used (partial loop). […] An in-house proprietary internal standard was used for determination of all 3 analytes.

[2] = tested on: PPAR β/δ mediated psoriasis-like skin disease; assay: Prevention of epidermal hyperplasia, agonist GW501516 and antagonist both topical; format: in vivo, PPAR β/δ transgenic mice; conditions: antagonist ointment once per day, GW501516 0.1% ointment five times per week, 20 days
Description: (§5) Mice were sacrificed, skin samples obtained and processed for H&E based histology as described. All samples were photographed at 200× magnification. Epidermal thickness was measured for all slides by a blinded observer at perpendicular angle to the basement membrane. […] For each sample, two measurements were taken in two separately photographed non-adjacent sections of the H&E stained skin sample.

PPARβ/δ [3] = conditions: cited from earlier work; for IC50: in vitro data taken from literature, ref references listed in Figure 1, read-out: IC50 PPARβ/δ binding
shaved dorsal skin = assay: Skin histology after one week of topical application (inflammatory changes); format: in vivo, C57Bl/6j wild type mice; conditions: for number of dermal nuclei per high power field: vs vehicle-only treated skin; for epidermal hyperplasia induced by antagonist: twice daily for one week
Description: We next determined the local concentrations in skin at steady state after prolonged topical application. […] Skin samples were then extracted and analysed by mass spectrometry for concentration determination as well as processed for histology. […] 90 min (cf. fig. 2b). […] Infrequently, we noted apoptotic epidermal keratinocytes (inset, middle row of H&E sections). Since these cells were also found in transgenic PPAR β/δ mice treated with the agonist only (figure S1), the exact underlying cause is unclear but unlikely to underlie the treatment effect of the antagonist creams.
Figure 4 Absence of inflammatory changes induced by PPAR β/δ antagonists in skin after topical application. […] Mice were sacrificed 1 h after the last ointment application and skin tissue processed for H&E based histology and mass spectrometry, as described in Methods. Data shown represent average ± s.d. of n = 3 mice per data point (left) treated with GSK (blue columns) or compound 3 h (red). Representative histology sections of all treated mice are shown on right. […] Horizontal bar represents 5 µm.
Mice were sacrificed, skin samples obtained and processed for H&E based histology as described. All samples were photographed at 200× magnification. Epidermal thickness was measured for all slides by a blinded observer at perpendicular angle to the basement membrane. The absence of variable planes of tissue sectioning as a confounder for apparent epidermal thickness was ruled out by verifying visible perpendicular insertion of hair follicles into the epidermis. For each sample, two measurements were taken in two separately photographed non-adjacent sections of the H&E stained skin sample.

other PPAR isoforms = tested on: other PPAR isoforms; design: method as in references listed in Figure 1 / ref 13; conditions: in vitro data taken from literature, ref references listed in Figure 1 / ref 13, cited from earlier work
[4] = Skin concentration after topical application (UPLC/mass spectrometry); format: in vivo, C57Bl/6j wild type mice; conditions: for local concentration in skin at steady state: twice daily for seven days, even for the lower dose used (0.2%), 1 h after last application
Description: as §1, §2
Mobile phase A was Milli-Q reverse phase de-ionised water with formic acid (0.1%, v∶v), mobile phase B was acetonitrile with formic acid (0.1%, v∶v). Mobile phase was delivered at a flow rate of 0.6 mL/min. […] Finally mobile phase B was returned to 5% over 0.1 min and maintained at this composition for 0.4 min. Total run time 3 min. […]

PPARβ/δ [5] = conditions: in vitro data taken from literature; ref references listed in Figure 1; read-out: EC50 PPARβ/δ competitive antagonism; cited from earlier work
[6] = Drug solubility in ointment, absence of crystals by polarised microscopy; format: physicochemical; conditions: Hydromol ointment with DMSO
Description: These included drug incorporation into liquified vehicle at 70°C, pre-disolvement in DMSO, ethanol, isopropanol, polyethyene glycol 300, and olive oil followed by vehicle incorporation, as well as a variety of vehicles (liquid paraffin, Hydromol ointment, aqueous ointment BP). Drug solubility was assessed using a previously reported method relying on the absence of crystals detectable by polarised microscopy.
All PPAR β/δ antagonists were custom-synthesized by AF-Chempharm (UK). […] Compound 3 h was pre-dissolved in DMSO, left at room temperature for 20 min at low agitation and then incorporated into Hydromol ointment using a melamin bowl to yield final concentrations of 0.5% (w/w) 3 h, and 5% (w/w) of DMSO, respectively. […] Vehicle-only contro ointment was prepared exactly as GSK0660 ointment while omitting the chemical itself. Ointments were stored in airtight containers at 4°C in the dark and made fresh once a week.

psoriasis = tested on: psoriasis; design: method as in PMID 12673084; conditions: cited from earlier work
[7] = tested on: HB-EGF, IL1b, LCE3e/LCE3f expression; assay: Real-time PCR of PPAR β/δ target genes in skin; format: in vivo, PPAR β/δ transgenic mice
Description: Skin was processed by removing subcutaneous tissue and small skin pieces were snap frozen in liquid nitrogen. Frozen skin was ground and RNA was extracted using the NucleoSpin RNA/Protein kit from Macherey-Nagel. cDNA synthesis was done with the SuperScript Vilo cDNA synthesis kit from Invitrogen. Gene expression levels were quantified using TaqMan-based real-time PCR using Assays-on-Demand kits obtained from Applied biosystems according to the manufacturer's instruction and quantification performed as calibrated to the internal housekeeping gene GAPDH (LCE3f: Mm02605425, Il1β: Mm01336189, Hb-EGF: Mm00439305).

[8] = Drug quantification in skin and blood of diseased mice (mass spectrometry); format: in vivo, PPAR β/δ transgenic mice; conditions: for concentration at 12 h: 12 h after the last cream application
Description: as §1, §2, §3, §4

[9] = design: method as in PMID 17975020; conditions: cited from earlier work
[10] = Storage stability at room temperature and light exposure; format: physicochemical
PPAR β/δ = tested on: PPAR β/δ; design: method as in PMID 17488971; conditions: cited from earlier work
[11] = tested on: PPAR β/δ mediated skin disease; assay: Control of skin disease induced by i.p. GW501516, ointment at different frequencies; format: in vivo, PPAR β/δ transgenic mice
Description: All animal studies reported here were subject to approval of Tayside Research Ethics Committee, and are conducted in accordance with UK Home Office procedures (project licence 60/3800, licence holder JF). Breeding of PPAR β/δ transgenic mice and genotyping were all carried out as described previously. […]
as §5

psoriasis (PASI scores) = tested on: psoriasis (PASI scores); design: method as in PMID 15479756; conditions: systemic administration; cited from earlier work

CCCCOc1ccc(-c2ccc(C(=O)O)cc2C)cc1CNC(=O)c1ccc(C(F)(F)F)cc1F [compound 3 h]
peak systemic concentration compared with reported EC50/IC50 ([1]; 1 h after topical application of ointment): slightly above the in vitro determined EC50 value | total amount of detectable compound in blood as fraction of total drug applied [1]: less than 0.01% | psoriasis-like epidermal hyperplasia induced by GW501516 [2]: significantly attenuated | IC50 (PPARβ/δ [3]): 10 nM | Ki (PPARβ/δ [3]; low reported Ki): 11 nM | number of dermal nuclei per high power field (shaved dorsal skin; one week): unchanged as compared to vehicle-only treated skin | epidermal hyperplasia induced by antagonist (shaved dorsal skin; H&E): neither antagonist produced notable epidermal hyperplasia | Activity on other PPAR isoforms (other PPAR isoforms; listed as Compound 3 h): lack of activity on other PPAR isoforms | Activity on other PPAR isoforms (other PPAR isoforms; listed as Compound 3h): Not active at 1 μM | local concentration in skin at steady state [4]: high local concentrations | EC50 (PPARβ/δ [5]): 11 nM | drug concentration up to which the optimised ointment formulation is devoid of drug crystals [6]: up to 2 % (w/w)

CCCCCCCCCCCCCCSCC(=O)O [tetradecylthioacetic acid (TTA), tetradecylthioacetic acid]
effect of topical application on psoriasis (psoriasis): showed no effect

COC(=O)c1sccc1S(=O)(=O)Nc1ccc(Nc2ccccc2)cc1OC [GSK0660]
total amount of detectable compound in blood as fraction of total drug applied [1]: less than 0.01% | drug accumulation in blood ([1]; blood measured for 24 h after drug application): no evidence of drug accumulation | total drug detectable in blood as fraction of total drug applied ([1]; over 24 h after drug application (figure 2b)): less than 0.01% | reversal of IL1b expression ([7]; qPCR, oral GW501516, ointment twice daily three weeks): only observed using the ointment containing GSK0660 | apoptotic epidermal keratinocytes (shaved dorsal skin; one week, H&E): apoptotic looking cells | number of dermal nuclei per high power field (shaved dorsal skin; one week): unchanged as compared to vehicle-only treated skin | epidermal hyperplasia induced by antagonist (shaved dorsal skin; H&E): neither antagonist produced notable epidermal hyperplasia | Activity on other PPAR isoforms (other PPAR isoforms): Not active at 10 μM | concentration at 12 h ([8]; PPAR β/δ transgenic, mouse, skin, topical, after 20 days of treatment, read-out: concentration in skin tissue): 48 ± 18 ng/g | concentration at 12 h ([8]; PPAR β/δ transgenic, mouse, whole blood, topical, after 20 days, threshold of detection, read-out: concentration in blood): < 25 nM | half-life ([4]; C57Bl/6j, mouse, topical, 42 mg ointment applied to dorsal skin (figure 3)): ~1.5 h | local concentration in skin at steady state [4]: high local concentrations | bioavailability upon systemic administration [9]: lack of bioavailability upon systemic administration | stability on storage (colour change) [10]: visible colour change from yellow to green | drug concentration up to which the optimised ointment formulation is devoid of drug crystals [6]: up to 2 % (w/w)

Cc1cc(SCc2sc(-c3ccc(C(F)(F)F)cc3)nc2C)ccc1OCC(=O)O [GW501516]
systemic absorption relative to the antagonists ([1]; 1 h post application, ointment concentrated 10-fold less (0.1%)): 100 fold | peak serum concentration ([1]; 1 h post topical application, 0.1% ointment): 400 nM

CN(CCOc1ccc(CC2SC(=O)NC2=O)cc1)c1ccccn1 (centres unmarked) [rosiglitazone]
effect of topical application on psoriasis (psoriasis): showed no effect | activation of PPAR β/δ (PPAR β/δ): can also activate PPAR β/δ

O=C(NCCS(=O)(=O)c1ccc(C(F)(F)F)cn1)c1ccc(Cl)cc1 [GSK3787]
concentration at 20 days ([1]; C57Bl/6j, mouse, whole blood, topical, healthy mice after 20 days of twice-daily treatment, n = 3): 50.2 ± 25.7 nM | expression of PPAR β/δ target genes LCE3f, IL1-beta, and HBEGF ([7]; twice-daily versus three times weekly application (fig. 8b)): suppression | mode of receptor inactivation (PPARβ/δ [3]): irreversibly inactivates the receptor by forming a covalent bond | IC50 (PPARβ/δ [3]): 6.7 nM | Activity on other PPAR isoforms (other PPAR isoforms): Active on PPARγ at 1 μM | tissue level of unmodified drug in lesional skin ([8]; 16 h after the final application): 240 ± 116 nmol/g of tissue | concentration at 16 h ([8]; PPAR β/δ transgenic, mouse, whole blood, topical, inflamed skin, 16 h after last cream application, read-out: concentration in blood at the end of the experiment): 445 ± 429 nM | range of therapeutic activity ([11]; H&E of treated area and its edge (figure S2)): efficacy was limited to the area of cream application | reducing the amount of dermal infiltrate ([11]; even when applied only 3× per week (fig. 7b)): as effective as GSK0660 | preventing epidermal hyperplasia ([11]; even when applied only 3× per week, comparator twice daily (fig. 7a)): as effective as GSK0660 | EC50 (PPARβ/δ [5]): 100 nM

CCc1ccc(CCOc2ccc(CC3SC(=O)NC3=O)cc2)nc1 (centres unmarked) [pioglitazone]
effect on PASI scores (psoriasis (PASI scores)): no marked reduction of PASI scores
